# According to US5120752A, “Cyclopropyl derivative lipoxygenase inhibitors” (Abbott Laboratories, priority 1990, dated 1992):
# Molecular target: T1, 5-lipoxygenase (Rattus norvegicus, UniProt P12527)
# T1 construct: 20,000×g supernatant from 1.5 million homogenized RBL-1 cells; endogenous in cells; host or cells: RBL-1 cells (20,000×g supernatant of homogenate)
# T1 sequence (P12527 1-673): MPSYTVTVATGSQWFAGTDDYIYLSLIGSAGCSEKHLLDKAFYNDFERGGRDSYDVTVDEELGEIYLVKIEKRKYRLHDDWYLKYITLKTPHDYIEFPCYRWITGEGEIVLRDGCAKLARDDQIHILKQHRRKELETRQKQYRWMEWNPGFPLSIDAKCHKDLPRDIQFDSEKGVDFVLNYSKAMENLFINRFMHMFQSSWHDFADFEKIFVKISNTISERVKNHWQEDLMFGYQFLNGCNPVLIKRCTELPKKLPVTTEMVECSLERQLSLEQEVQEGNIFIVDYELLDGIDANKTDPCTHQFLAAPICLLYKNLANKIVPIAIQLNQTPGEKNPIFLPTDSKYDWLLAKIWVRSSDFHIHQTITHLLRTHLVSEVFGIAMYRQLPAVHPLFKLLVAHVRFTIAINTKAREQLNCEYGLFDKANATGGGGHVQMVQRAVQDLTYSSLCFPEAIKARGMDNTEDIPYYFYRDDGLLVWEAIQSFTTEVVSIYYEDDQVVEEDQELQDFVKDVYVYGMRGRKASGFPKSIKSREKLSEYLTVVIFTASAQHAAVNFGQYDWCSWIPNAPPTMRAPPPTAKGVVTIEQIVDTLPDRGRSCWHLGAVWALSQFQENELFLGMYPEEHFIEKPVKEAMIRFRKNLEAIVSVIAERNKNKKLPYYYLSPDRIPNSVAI
# Assay: In vitro inhibition of 5-lipoxygenase (20,000×g supernatant from homogenized RBL-1 cells, radiolabeled arachidonic acid)
# Type: biochemical
# Conditions: 20,000×g supernatant of RBL-1 cells; triplicate; read-out: IC50 (in vitro inhibitory potency against 5-lipoxygenase)
# Experimental: Assays to determine 5-lipoxygenase inhibitory activity were performed in […] incubations containing the 20,000×g supernatant from 1.5 million homogenized RBL-1 cells and various concentrations of the test compound. Reactions were initiated by addition of radiolabeled arachidonic acid and terminated by acidification and ether extraction. Reaction products were separated from nonconverted substrate by thin layer chromatography and measured by liquid scintillation spectroscopy. All incubations were performed in triplicate. Inhibition of 5-lipoxygenase activity was calculated as the ratio of the amount of product formed in the presence and absence of inhibitor. IC50 values (concentration of compound producing 50% enzyme inhibition) were calculated by linear regression analysis of percentage inhibition versus log inhibitor concentration plots. (Dyer, R .D.; Haviv, F.; Hanel, A. M.; Bornemier, D. A.; Carter, G. W. Fed. Proc., Fed. Am. Soc. Exp. Biol. 1984, 43, 1462A).
row,SMILES,IC50 [nM]
1,"COc1ccc2cc([C@@H]3C[C@H]3CN(O)C(N)=O)ccc2c1 (relative stereo) [Example 18, N-(1-trans-(2-(6-methoxy-2-naphthyl)cyclopropyl)methyl)-N-hydroxyurea]",200
2,"CC(C)Oc1ccc([C@@H]2C[C@H]2CN(O)C(N)=O)cc1 (relative stereo) [Example 67, N-(1-trans-(2-(4-isopropoxyphenyl)cyclopropyl)methyl)-N-hydroxyurea]",400
3,"NC(=O)N(O)C[C@@H]1C[C@H]1c1ccncc1 (relative stereo) [Example 43, N-(1-trans-(2-(4-pyridyl)cyclopropyl)methyl)-N-hydroxyurea]",5700
4,"COc1ccc(Oc2cccc([C@@H]3C[C@H]3CN(O)C(N)=O)c2)cc1 (relative stereo) [Example 53, N-(1-trans-(2-(3-(4-methoxyphenoxy)phenyl)cyclopropyl)-methyl)-N-hydroxyurea]",100
5,"NC(=O)N(O)C[C@@H]1C[C@H]1c1cccc(Oc2ccncc2)c1 (relative stereo) [Example 49, N-(trans-(2-(3-(4-pyridyloxy)phenyl)cyclopropyl)methyl)-N-hydroxyurea]",400
6,"CC(=O)N(O)C[C@@H]1C[C@H]1c1ccc(Br)cc1 (relative stereo) [Example 38, N-(1-trans-(2-(4-bromophenyl)cyclopropyl)methyl)-N-hydroxyacetamide]",30
7,CC(C)c1ccc([C@@H]2C[C@H]2CN(O)C(N)=O)cc1 (relative stereo) [Example 63],300
8,"Cc1ccc(Oc2cccc([C@@H]3C[C@H]3CN(O)C(N)=O)c2)cc1 (relative stereo) [Example 51, N-(1-trans-(2-(3-(4-methylphenoxy)phenyl)cyclopropyl)methyl)-N-hydroxyurea]",60
9,CC(C)Oc1cccc([C@@H]2C[C@H]2CN(O)C(N)=O)c1 (relative stereo) [Example 64],1000
10,NC(=O)N(O)C[C@@H]1C[C@H]1c1cccnc1 (relative stereo) [Example 42],1600
11,"CC(C)Oc1ccc([C@@H]2C[C@H]2CN(O)C(N)=O)cc1Br (relative stereo) [Example 66, N-(1-trans-(2-(3-bromo-4-isopropoxyphenyl)cyclopropyl)-methyl)-N-hydroxyurea]",440
12,CN(O)C(=O)[C@@H]1C[C@H]1c1cccc(Oc2ccccc2)c1 (relative stereo) [Example 30],100
13,"NC(=O)N(O)C[C@@H]1C[C@H]1c1cccc(Oc2ccc(OCc3ccccc3)cc2)c1 (relative stereo) [Example 54, N-(1-trans-(2-(3-(4-benzyloxyphenoxy)phenyl)cyclopropyl)-methyl)-N-hydroxyurea]",300
14,"COc1ccc([C@@H]2C[C@H]2CN(O)C(N)=O)cc1 (relative stereo) [Example 60, N-(1-trans-(2-(4-methoxyphenyl)cyclopropyl)methyl)-N-hydroxyurea]",1500
15,"NC(=O)N(O)C[C@@H]1C[C@H]1c1cccc(Oc2ccccn2)c1 (relative stereo) [Example 48, N-(1-trans-(2-(3-(2-pyridyloxy)phenyl)cyclopropyl)methyl)-N-hydroxyurea]",400
16,"CC(=O)N(O)C[C@@H]1C[C@H]1c1ccc(C)cc1 (relative stereo) [Example 46, N-(1-trans-(2-(4-methylphenyl)cyclopropyl)methyl)-N-hydroxyacetamide]",300
17,"Cc1cccc([C@@H]2C[C@H]2CN(O)C(N)=O)n1 (relative stereo) [Example 62, N-(1-trans-(2-(6-methyl-2-pyridyl)cyclopropyl)methyl)-N-hydroxyurea]",7600
18,"NC(=O)N(O)C[C@@H]1C[C@H]1c1cccc(Oc2ccc(F)cc2)c1 (relative stereo) [Example 50, N-(1-trans-(2-(3-(4-fluorophenoxy)phenyl)cyclopropyl)methyl)-N-hydroxyurea]",100

# Continued, values first:
row,IC50 [nM],SMILES
1,130,"CC([C@@H]1C[C@H]1c1ccc(OCc2ccccc2)cc1)N(O)C(N)=O (stereo partly drawn) [Example 14, N-(1-trans-(2-(4-(phenylmethoxy)phenyl)cyclopropyl)ethyl)-N-hydroxyurea]"
2,100,"CC(=O)N(O)C(C)[C@@H]1C[C@H]1c1ccc(Br)cc1 (single isomer, unassigned) [Example 44, N-(1-trans-(2-(4-bromophenyl)cyclopropyl)ethyl)-N-hydroxyacetamide]"
3,100,"CC([C@@H]1C[C@H]1c1ccc(Oc2ccccc2)cc1)N(O)C(N)=O (stereo partly drawn) [Example 2, N-(1-trans-(2-(4-phenoxyphenyl)cyclopropyl)ethyl)-N-hydroxyurea]"
4,60,"NC(=O)N(O)C[C@@H]1C[C@H]1c1ccc(Oc2ccccc2)cc1 (relative stereo) [Example 36, N-(1-trans-(2-(4-phenoxyphenyl)cyclopropyl)methyl)-N-hydroxyurea]"
5,3600,"CC(C1CC1c1ccco1)N(O)C(N)=O (stereo not drawn) [Example 65, N-(1-trans-(2-(2-furfuranyl)cyclopropyl)ethyl-N-hydroxyurea]"
6,200,"CC([C@@H]1C[C@H]1c1cc2ccccc2s1)N(O)C(N)=O (single isomer, unassigned) [Example 1b, N-(1-trans-(2-(benzo[b]thien-2-yl)cyclopropyl)ethyl)-N-hydroxyurea]"
7,200,"Cc1cc([C@@H]2C[C@H]2CN(O)C(N)=O)ccc1Oc1ccccc1 (relative stereo) [Example 56, N-(1-trans-(2-(3-methyl-4-phenoxy)phenylcylclopropyl)methyl)-N-hydroxyurea]"
8,700,"CC(=O)N(O)C(C)[C@@H]1C[C@H]1c1ccc(C)cc1 (stereo partly drawn) [Example 59, N-(1-trans-(2-(4-methylphenyl)cyclopropyl)ethyl)-N-hydroxyacetamide]"
9,100,"CC([C@@H]1C[C@H]1CCc1ccccc1)N(O)C(N)=O (stereo partly drawn) [Example 32, N-(1-trans-(2(2-phenylethyl)cyclopropyl)ethyl)-N-hydroxyurea]"
10,300,CC(=O)N(O)C(C)[C@@H]1C[C@H]1c1ccc2ccccc2c1 (stereo partly shown) [Example 57]
11,200,"Cc1ccc([C@@H]2C[C@H]2CN(O)C(N)=O)cc1Oc1ccccc1 (relative stereo) [Example 61, N-(1-trans-(2-(4-methyl-3-phenoxyphenyl)cyclopropyl)methyl)-N-hydroxyurea]"
12,400,"CC(Oc1ccc([C@@H]2C[C@H]2C(C)N(O)C(N)=O)cc1)c1ccccc1 (stereo partly drawn) [Example 7, N-(1-trans-(2-(4-(1-phenylethoxy)phenyl)cyclopropyl)ethyl)-N-hydroxyurea]"
13,300,"CC([C@@H]1C[C@H]1c1ccc2ccccc2c1)N(O)C(N)=O (stereo partly drawn) [Example 45, N-(1-trans-((2-napthyl)cyclopropyl)ethyl)-N-hydroxyurea]"
14,200,"CNC(=O)N(O)C(C)[C@@H]1C[C@H]1c1cc2ccccc2s1 (stereo partly drawn) [Example 8, N-(1-trans-(2-(benzo[b]thien-2-yl)cyclopropyl)ethyl)-N-hydroxy-N'-methylure]"
15,100,CC([C@H]1[C@H](c2ccccc2)C1(C)C)N(O)C(N)=O (stereo partly shown) [Example 24]
16,80,"CC(C)Cc1ccc([C@@H]2C[C@H]2CN(O)C(N)=O)cc1 (relative stereo) [Example 20, N-(1-trans-(2-(4-(2-methyl-1-propyl)phenyl)cyclopropyl)-methyl)-N-hydroxyurea]"
17,1400,"CN(O)C(=O)[C@@H]1C[C@H]1c1ccccc1 (relative stereo) [Example 31, N-methyl-N-hydroxy-trans-2-phenylcyclopropyl carboxamide]"
18,300,"CC([C@@H]1C[C@H]1c1cc2ccccc2s1)N(O)C(N)=O (single isomer, unassigned) [Example 1a, N-(1-trans-(2-(benzo[b]thien-2-yl)cyclopropyl)ethyl)-N-hydroxyurea]"
19,50,"NC(=O)N(O)C[C@@H]1C[C@H]1c1ccc(OCc2ccccc2)cc1 (relative stereo) [Example 21, N-(1-trans-(2-(4-(phenylmethoxy)phenyl)cyclopropyl)methyl)-N-hydroxyurea]"
